Drawing on US20240199546A1, “INHIBITORS OF SOLUTE CARRIER FAMILY 6A MEMBER 19 (SLC6A19) AND METHODS OF USE THEREOF” (Maze Therapeutics, Inc., priority 2022, published 2024), this text covers IC50 for 28 molecules.

Molecules are shown by their SMILES.

For the test, the target named is T1, human SLC6A19 and TMEM27 (Homo sapiens, UniProt Q695T7).
T1 construct: expressed in transfected cells
T1 sequence (Q695T7 1-634): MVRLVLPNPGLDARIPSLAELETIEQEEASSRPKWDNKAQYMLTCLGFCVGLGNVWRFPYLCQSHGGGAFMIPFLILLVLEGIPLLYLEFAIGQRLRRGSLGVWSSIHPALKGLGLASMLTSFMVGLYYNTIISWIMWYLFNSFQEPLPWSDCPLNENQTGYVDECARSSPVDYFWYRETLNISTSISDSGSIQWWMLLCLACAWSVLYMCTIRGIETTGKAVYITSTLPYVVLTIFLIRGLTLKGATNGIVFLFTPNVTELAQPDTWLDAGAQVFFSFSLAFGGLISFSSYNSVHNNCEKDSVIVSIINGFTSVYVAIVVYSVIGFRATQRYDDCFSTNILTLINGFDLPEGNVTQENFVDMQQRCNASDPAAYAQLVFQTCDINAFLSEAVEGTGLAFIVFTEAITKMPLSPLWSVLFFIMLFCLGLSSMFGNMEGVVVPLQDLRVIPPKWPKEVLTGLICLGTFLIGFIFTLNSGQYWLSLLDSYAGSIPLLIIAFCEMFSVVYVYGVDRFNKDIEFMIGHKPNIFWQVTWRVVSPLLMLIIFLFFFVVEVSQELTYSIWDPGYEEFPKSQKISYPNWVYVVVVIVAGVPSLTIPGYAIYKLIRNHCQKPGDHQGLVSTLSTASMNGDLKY
T1 sequence (Q9HBJ8 15-222 partner): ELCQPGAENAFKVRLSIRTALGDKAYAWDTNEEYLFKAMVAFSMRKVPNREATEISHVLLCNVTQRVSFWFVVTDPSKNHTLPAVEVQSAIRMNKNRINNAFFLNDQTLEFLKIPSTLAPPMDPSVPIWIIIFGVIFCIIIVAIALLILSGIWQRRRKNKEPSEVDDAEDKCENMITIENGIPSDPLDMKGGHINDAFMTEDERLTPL
Kind of test: Radiolabelled (3H) leucine uptake in CHO cells with doxycycline-inducible expression of human SLC6A19 and TMEM27 (Example B-1). The class given is cell-based. As to conditions: CHO cells with doxycycline-inducible expression of human SLC6A19 and TMEM27, read-out: SLC6A19_Radioligand Uptake Assay IC50. As to the method:
The flasks were then incubated (humidified, 37° C. with 5% CO2) for 2 minutes. After incubation, 10 mL of pre-warmed cell culture media was added to each flask. The cell suspension was collected and centrifuged for 5 minutes at 200×g. The supernatant was aspirated and the pellet was resuspended in 5 mL pre-warmed cell culture media. The resuspended cells were counted using the Countess Cell Counting Chamber (Invitrogen) and the cell concentration of the suspension was readjusted to 1 million live cells/mL using pre-warmed cell culture media. […] Assay plates were then incubated (humidified, 37° C. with 5% CO2) for 18 hours. After incubation, the media was aspirated and the wells were washed 4 times with pre-warmed HBSS (Sigma-Aldrich, H8264-1L) using an Apricot S-Pipette S2 (Apricot Designs), such that 5 uL/well HBSS was remaining at the end of each wash. […] At this step, the final in-well DMSO concentration in the assay plate is 0.5%. All compounds were plated in a duplicate 8-point dilution series that consisted of 3-fold dilutions. The plates were incubated with compound (humidified, 37° C. with 5% CO2) for 1 hour. […] The plates were then incubated (humidified, 37° C. with 5% CO2) on a plate shaker at 200 rpm for 2 hours. After incubation, the plates were removed from the shaker and kept at room temperature for 15 minutes. Liquid scintillation analysis was performed using the MicroBeta2 Microplate Counter (Perkin Elmer). Activity (%) was derived by normalizing the average of positive control compound treated wells to 0% and the average of DMSO (negative control) wells to 100%. Collaborative Drug Discovery software was used for graphing data.
Regarding `Cc1cc(COc2cc3[nH]c(CNC(=O)C4(C#N)COC4)cc3cc2Cl)on1` [Compound 275, N-((5-chloro-6-((3-methylisoxazol-5-yl)methoxy)-1H-indol-2-yl)methyl)-3-cyanooxetane-3-carboxamide], the IC50 is 350 nM. Take `C[C@@H](O)C(=O)NCc1cc2cc(Cl)c(OCc3cscn3)cc2[nH]1` [Compound 257, (R)-N-((5-chloro-6-(thiazol-4-ylmethoxy)-1H-indol-2-yl)methyl)-2-hydroxypropanamide]: the IC50 was found to be 756 nM. Consider `Cc1cc(COc2cc3[nH]c(CNC(=O)CC(F)F)cc3cc2Cl)on1` [Compound 519, N-((5-chloro-6-((3-methylisoxazol-5-yl)methoxy)-1H-indol-2-yl)methyl)-3,3-difluoropropanamide], for which the IC50 turned out to be 118 nM. As to `CC[C@H](O)C(=O)NCc1cc2cc(Cl)c(OCc3cc(C)no3)cc2[nH]1` [Compound 240, (S)-N-((5-chloro-6-((3-methylisoxazol-5-yl)methoxy)-1H-indol-2-yl)methyl)-2-hydroxybutanamide], the IC50 turned out to be 490 nM. For the molecule `O=C(NCc1cc2cc(OC(F)(F)F)c(CCc3cocn3)cc2[nH]1)N1CCCC1` [Compound 468, N-((6-(2-(oxazol-4-yl)ethyl)-5-(trifluoromethoxy)-1H-indol-2-yl)methyl)pyrrolidine-1-carboxamide], the 50% inhibitory concentration (IC50) turned out to be 422 nM. For `Cc1cc(COc2cc3[nH]c(CNC(=O)[C@@H]4CCO4)cc3cc2Cl)on1` [Compound 276, (S)-N-((5-chloro-6-((3-methylisoxazol-5-yl)methoxy)-1H-indol-2-yl)methyl)oxetane-2-carboxamide], the IC50 was 94 nM.

For `Cc1cc(COc2cc3[nH]c(CNC(=O)C(O)C4CC4)cc3cc2Cl)on1` (stereo not shown) [Compound 238, N-((5-chloro-6-((3-methylisoxazol-5-yl)methoxy)-1H-indol-2-yl)methyl)-2-cyclopropyl-2-hydroxyacetamide], the half-maximal inhibitory concentration (IC50) is 1450 nM. Take `O=C(NCc1cc2cc(F)c(CCc3cscn3)cc2[nH]1)N1CCCC1` [Compound 601, N-((5-fluoro-6-(2-(thiazol-4-yl)ethyl)-1H-indol-2-yl)methyl)pyrrolidine-1-carboxamide]: the IC50 was 174 nM. Take `O=C(NCc1cc2cc(Cl)c(OCc3cscn3)cc2[nH]1)C12CC(C1)C2` [Compound 552, N-((5-chloro-6-(thiazol-4-ylmethoxy)-1H-indol-2-yl)methyl)bicyclo[1.1.1]pentane-1-carboxamide]: the concentration for half-maximal inhibition (IC50) was 340 nM. As to `O=C(NCc1cc2cc(OC(F)(F)F)c(OCc3cocn3)cc2[nH]1)N1CCCC1` [Compound 417, N-((6-(oxazol-4-ylmethoxy)-5-(trifluoromethoxy)-1H-indol-2-yl)methyl)pyrrolidine-1-carboxamide], the IC50 is 394 nM. Regarding `CCC(=O)NCc1cc2cc(F)c(OCc3ccon3)cc2[nH]1` [Compound 137, N-((5-fluoro-6-(isoxazol-3-ylmethoxy)-1H-indol-2-yl)methyl)propionamide], the IC50 was determined as 183 nM. As for `CC1(C(=O)NCc2cc3cc(CC#N)c(OCc4cscn4)cc3[nH]2)CC1` [Compound 643, N-((5-(cyanomethyl)-6-(thiazol-4-ylmethoxy)-1H-indol-2-yl)methyl)-1-methylcyclopropane-1-carboxamide], the IC50 turned out to be 631 nM. For the molecule `CC1(C(=O)NCc2cc3cc(Cl)c(OCCC4CC4)cc3[nH]2)CC1` [Compound 635, N-((5-chloro-6-(2-cyclopropylethoxy)-1H-indol-2-yl)methyl)-1-methylcyclopropane-1-carboxamide], the IC50 was found to be 193 nM.

Turning to `C[C@H]1CCN1C(=O)NCc1cc2cc(Cl)c(OCc3cscn3)cc2[nH]1` [Compound 360, (S)-N-((5-chloro-6-(thiazol-4-ylmethoxy)-1H-indol-2-yl)methyl)-2-methylazetidine-1-carboxamide], the half-maximal inhibitory concentration (IC50) came out at 432 nM. Turning to `Cc1cc(COc2cc3[nH]c(CNC(=O)c4ccno4)cc3cc2Cl)on1` [Compound 522, N-((5-chloro-6-((3-methylisoxazol-5-yl)methoxy)-1H-indol-2-yl)methyl)isoxazole-5-carboxamide], the IC50 came out at 199 nM.

For the molecule `O=C(NCc1cc2cc(OC(F)(F)F)c(CCc3ccon3)cc2[nH]1)N1CCC1` [Compound 597, N-((6-(2-(isoxazol-3-yl)ethyl)-5-(trifluoromethoxy)-1H-indol-2-yl)methyl)azetidine-1-carboxamide], the IC50 stood at 307 nM. `O=C(NCc1cc2cc(Cl)c(OCc3ccon3)cc2[nH]1)C1CC(F)(F)C1` [Compound 491, N-((5-chloro-6-(isoxazol-3-ylmethoxy)-1H-indol-2-yl)methyl)-3,3-difluorocyclobutane-1-carboxamide]: the IC50 is 814 nM. Consider `Cc1cc(CNc2cc3[nH]c(CNC(=O)N4CCCC4)cc3cc2Cl)no1` [Compound 469, N-((5-chloro-6-(((5-methylisoxazol-3-yl)methyl)amino)-1H-indol-2-yl)methyl)pyrrolidine-1-carboxamide], for which the half-inhibitory concentration (IC50) came out at 392 nM. As to `Cc1cc(COc2cc3[nH]c(CNC(=O)[C@@H]4C[C@H]4F)cc3cc2Cl)on1` [Compound 537, (1S,2R)-N-((5-chloro-6-((3-methylisoxazol-5-yl)methoxy)-1H-indol-2-yl)methyl)-2-fluorocyclopropane-1-carboxamide], the 50% inhibitory concentration (IC50) was 108 nM.

Take `Cc1cc(COc2cc3[nH]c(CNC(=O)N4CCC45COC5)cc3cc2Cl)on1` [Compound 378, N-((5-chloro-6-((3-methylisoxazol-5-yl)methoxy)-1H-indol-2-yl)methyl)-6-oxa-1-azaspiro[3.3]heptane-1-carboxamide]: the 50% inhibitory concentration (IC50) is 5510 nM. As to `COCC(=O)NCc1cc2cc(Cl)c(OCc3cc(C)no3)cc2[nH]1` [Compound 272, N-((5-chloro-6-((3-methylisoxazol-5-yl)methoxy)-1H-indol-2-yl)methyl)-2-methoxyacetamide], the IC50 was 78.9 nM.

For `C[C@H]1CCN1C(=O)NCc1cc2cc(Cl)c(OCc3ccon3)cc2[nH]1` [Compound 362, (S)-N-((5-chloro-6-(isoxazol-3-ylmethoxy)-1H-indol-2-yl)methyl)-2-methylazetidine-1-carboxamide], the IC50 amounted to 983 nM. For `Cc1cc(COc2cc3[nH]c(CNC(=O)N4CCCC4)cc3cc2F)on1` [Compound 118, N-((5-fluoro-6-((3-methylisoxazol-5-yl)methoxy)-1H-indol-2-yl)methyl)pyrrolidine-1-carboxamide], the IC50 stood at 1110 nM. For the molecule `Cc1cc(COc2cc3[nH]c(CNC(=O)C(C)(F)F)cc3cc2Cl)on1` [Compound 440, N-((5-chloro-6-((3-methylisoxazol-5-yl)methoxy)-1H-indol-2-yl)methyl)-2,2-difluoropropanamide], the concentration for half-maximal inhibition (IC50) stood at 111 nM.

For the molecule `CCOC(=O)NCc1cc2cc(Cl)c(OCc3cscn3)cc2[nH]1` [Compound 620, ethyl ((5-chloro-6-(thiazol-4-ylmethoxy)-1H-indol-2-yl)methyl)carbamate], the IC50 is 182 nM. As for `Cc1cc(COc2cc3[nH]c(CNC(=O)C45CCC(CC4)O5)cc3cc2Cl)on1` [Compound 296, N-((5-chloro-6-((3-methylisoxazol-5-yl)methoxy)-1H-indol-2-yl)methyl)-7-oxabicyclo[2.2.1]heptane-1-carboxamide], the half-maximal inhibitory concentration (IC50) is 976 nM. Consider `CC1(C(=O)NCc2cc3cc(Cl)c(SCc4ccon4)cc3[nH]2)CC1` [Compound 197, N-((5-chloro-6-((isoxazol-3-ylmethyl)thio)-1H-indol-2-yl)methyl)-1-methylcyclo propanecarboxamide], for which the IC50 came out at 154 nM.

Take `O=C(CC12CC(C1)C2)NCc1cc2cc(Cl)c(OCc3cscn3)cc2[nH]1` [Compound 555, 2-(bicyclo[1.1.1]pentan-1-yl)-N-((5-chloro-6-(thiazol-4-ylmethoxy)-1H-indol-2-yl)methyl)acetamide]: the half-maximal inhibitory concentration (IC50) was determined as 3040 nM.

What is called IC50 is the point on the concentration scale where inhibition reaches its midpoint.
